Measurements reported in patent US20260109672A1, “SARS-COV-2 MPRO INHIBITORS AND USES THEREOF” (NXERA PHARMA UK LIMITED, priority 2022, published 2026).

Experiments:
[1] = tested on: P-glycoprotein (P-gp, MDR1); experiment: MDCK-MDR1 permeability and P-gp substrate assay; assay type: in vitro ADME, canine; conditions: dog, pH 7.4, MDCK-MDR1, apical to basolateral, without P-gp inhibitor
Protocol: Permeability and drug efflux of certain example compounds was investigated using the following assay.
Test compound was added to either the apical side of a confluent monolayer of MDCK-MDR1 (Madin-Darby canine kidney cells stably transfected to express active P-glycoprotein) and permeability was measured by monitoring the appearance of the test compound on the basolateral side of the monolayer using LC-MS/MS. Experiments were performed in the absence and presence of a P-glycoprotein (P-gp) inhibitor elacridar (2 μM) to determine whether the compound was subject to P-gp mediated efflux.
MDCK-MDR1 cells obtained from the NIH (Rockville, MD, USA) were used between passage numbers 6-30. […]
For assessment of A-B permeability, HBSS was removed from the apical compartment and replaced with test compound dosing solution or test compound plus P-gp inhibitor dosing solutions. […] Test compound permeability was assessed in duplicate. […]
Test and control compounds were quantified by LC-MS/MS cassette analysis using a 7-point calibration with appropriate dilution of the samples. The starting concentration (C0) was determined from the dosing solution and the experimental recovery calculated from C0 and both apical and basolateral compartment concentrations.
The permeability coefficient (Papp) for each compound in the absence and presence of a P-gp inhibitor was calculated from the following equation: […]

SARS-CoV-2 Mpro [2] = target: T1, SARS-CoV-2 Mpro (Severe acute respiratory syndrome coronavirus 2, UniProt P0DTD1); experiment: SARS-CoV-2 Mpro enzyme assay (FRET); assay type: biochemical; conditions: 20 nM Mpro, 30 min preincubation at 30° C., mean n=2, read-out: SARS-CoV-2 Mpro enzyme pKi assay pKi (converted)
SARS-CoV-2 Mpro [3] = target: T1, SARS-CoV-2 Mpro; experiment: Modified SARS-CoV-2 Mpro enzyme assay (FRET, kinetic read) for reference examples; assay type: biochemical; conditions: 5 nM Mpro, 20 min preincubation at room temperature, mean n=2, set out in PCT/GB2022/050836, read-out: SARS-CoV-2 Mpro enzyme pKi assay pKi (converted)
[4] = Pedersen et al.; cited from earlier work
SARS-CoV-2 infection = conditions: approved in selected countries for limited use; Zhou et al.; cited from earlier work
live virus = conditions: cited from earlier work
[5] = tested on: ten further coronavirus strains; conditions: read-out: Ki values against ten further coronavirus strains; cited from earlier work

Molecule | Ki (SARS-CoV-2 Mpro [2]) [nM] | other results
CC(C)(C)[C@H](NC(=O)C(F)(F)F)C(=O)N1C[C@H]2[C@@H]([C@H]1C(=O)NC(C[C@@H]1CCNC1=O)C(=O)C(=O)NC1CC1)C2(C)C (stereo partly drawn) [Example 1, (1R,2S,5S)-N-(4-(cyclopropylamino)-3,4-dioxo-1-((S)-2-oxopyrrolidin-3-yl)butan-2-yl)-3-((S)-3,3-dimethyl-2-(2,2,2-trifluoroacetamido)butanoyl)-6,6-dimethyl-3-azabicyclo[3.1.0]hexane-2-carboxamide] | 3.98 | Papp A→B at 60 min, 1 μM [1]: 0.9 ×10⁻⁶ cm/s
CNC(=O)C(=O)C(CC1CC1)NC(=O)[C@@H]1[C@@H]2[C@H](CN1C(=O)[C@@H](NC(=O)C(F)(F)F)C(C)(C)C)C2(C)C (stereo partly drawn) [Example 2, (1R,2S,5S)-N-[1-(cyclopropylmethyl)-3-(methylamino)-2,3-dioxo-propyl]-3-[(2S)-3,3-dimethyl-2-[(2,2,2-trifluoroacetyl)amino]butanoyl]-6,6-dimethyl-3-azabicyclo[3.1.0]hexane-2-carboxamide] | 20 | Papp A→B at 60 min, 1 μM [1]: 2.2 ×10⁻⁶ cm/s
CC(C)[C@H](NC(=O)C(F)(F)F)C(=O)N1C[C@H]2[C@@H]([C@H]1C(=O)NC(CC1CC1)C(=O)C(N)=O)C2(C)C (stereo partly drawn) [Example 3, (1R,2S,5S)-N-[3-amino-1-(cyclopropylmethyl)-2,3-dioxo-propyl]-6,6-dimethyl-3-[(2S)-3-methyl-2-[(2,2,2-trifluoroacetyl)amino]butanoyl]-3-azabicyclo[3.1.0]hexane-2-carboxamide] | 63.1 | 
CC(C)(C)[C@H](NC(=O)C(F)(F)F)C(=O)N1C[C@H]2[C@@H]([C@H]1C(=O)NC(CC1CCC1)C(=O)C(N)=O)C2(C)C (stereo partly drawn) [Example 4, (1R,2S,5S)-N-[3-amino-1-(cyclobutylmethyl)-2,3-dioxo-propyl]-3-[(2S)-3,3-dimethyl-2-[(2,2,2-trifluoroacetyl)amino]butanoyl]-6,6-dimethyl-3-azabicyclo[3.1.0]hexane-2-carboxamide] | 79.4 | 
CC(C)C(=O)N[C@H](C(=O)N1C[C@H]2[C@@H]([C@H]1C(=O)NC(C[C@@H]1CCNC1=O)C(=O)C(=O)NC1CC1)C2(C)C)C(C)(C)C (some centres unmarked) [Example 5] | 15.8 | 
CC(C)(C)[C@H](NC(=O)C(F)(F)F)C(=O)N1C[C@H]2[C@@H]([C@H]1C(=O)NC(C[C@H]1CCCNC1=O)C(=O)C(=O)NC1CC1)C2(C)C (stereo partly drawn) [Example 6, (1R,2S,5S)-N-[3-(cyclopropylamino)-2,3-dioxo-1-[[(3R)-2-oxo-3-piperidyl]methyl]propyl]-3-[(2S)-3,3-dimethyl-2-[(2,2,2-trifluoroacetyl)amino]butanoyl]-6,6-dimethyl-3-azabicyclo[3.1.0]hexane-2-carboxamide] | 10 | 
CC1(C)[C@@H]2[C@@H](C(=O)NC(C[C@@H]3CCNC3=O)C(=O)C(=O)NC3CC3)N(C(=O)/C=C/c3ccc(F)cc3F)C[C@@H]21 (stereo partly drawn) [Example 7, (1R,2S,5S)-N-(4-(cyclopropylamino)-3,4-dioxo-1-((S)-2-oxopyrrolidin-3-yl)butan-2-yl)-3-((E)-3-(2,4-difluorophenyl)acryloyl)-6,6-dimethyl-3-azabicyclo[3.1.0]hexane-2-carboxamide] | 63.1 | 
CC(C)C(=O)N[C@H](C(=O)N1C[C@H]2[C@@H]([C@H]1C(=O)NC(CC1CC1)C(=O)C(=O)C#N)C2(C)C)C(C)(C)C (some centres unmarked) [Example 27] |  | Ki (SARS-CoV-2 Mpro [3]): > 5010 nM
CC(C)C[C@H](NC(=O)OCc1ccccc1)C(=O)N[C@@H](C[C@@H]1CCNC1=O)C(O)S(=O)(=O)[O-].[Na+] (some centres unmarked) [GC376] |  | Side effects in trials performed in cats [4]: side effects
NC(=O)c1nc(F)c[nH]c1=O [favipiravir] |  | Effect in treatment of SARS-CoV-2 infection (SARS-CoV-2 infection): modest effects
PF-00835231 |  | Activity in cell-based live virus assays (live virus): ~1 µM; Ki [5]: 0.03 to 4 nM
